Test results published in patent US20250282799A1, “SUBSTITUTED PYRIDO[4,3-d]PYRIMIDINES AS KRAS MODULATORS” (Alterome Therapeutics, Inc., priority 2023, published 2025).

What follows are molecules tested on KRAS G12V dependent lung adenocarcinoma cell line, NCI-H441 (assay: Cellular pERK (Thr202/Tyr204) FRET/HTRF assay). Details: Homo sapiens, NCI-H441, cellular pERK (Thr202/Tyr204) HTRF, NCI-H441 cells.
Assay type: cell-based
In short: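 NCI-H441 cells (KRAS G12V) were seeded and grown overnight at 37 °C, 5% CO2, then treated with compound in DMSO for 1 hr. Lysates were probed with a Eu3+-cryptate/d2 antibody sandwich against pERK1/2 Thr202/Tyr204 and read by HTRF at 665 nm; IC50 from curve fitting.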

| IC50 [nM] | SMILES |
| --- | --- |
| < 50 | C#Cc1c(F)ccc2cc(N)cc(-c3ncc4c(N5CCOC[C@H]6[C@H](F)[C@H]65)nc(OC[C@@]56CCCN5CC(=C)C6)nc4c3F)c12 [Example 158, 5-Ethynyl-6-fluoro-4-(8-fluoro-4-((1S,7S,8S)-8-fluoro-5-oxa-2-azabicyclo[5.1.0]octan-2-yl)-2-(((S)-2-methylenetetrahydro-1H-pyrrolizin-7a(5H)-yl)methoxy)pyrido[4,3-d]pyrimidin-7-yl)naphthalen-2-amine] |
| < 50 | [2H]C([2H])(F)Oc1c(F)ccc2cccc(-c3ncc4c(N5CCOC[C@H]6[C@H](F)[C@H]65)nc(OC[C@@]56CCCN5C/C(=C/F)C6)nc4c3F)c12 [Example 156, (1S,7S,8S)-8-fluoro-2-(8-fluoro-7-(7-fluoro-8-(fluoromethoxy-d2)naphthalen-1-yl)-2-(((S,E)-2-(fluoromethylene)tetrahydro-1H-pyrrolizin-7a(5H)-yl)methoxy)pyrido[4,3-d]pyrimidin-4-yl)-5-oxa-2-azabicyclo[5.1.0]octane] |
| < 50 | [2H]C([2H])(F)Oc1c(F)ccc2cc(N)cc(-c3ncc4c(N5CCCC[C@H]6[C@H](F)[C@H]65)nc(OC[C@]56C/C(=C/F)CN5CCC65CC5)nc4c3F)c12 [Example 409, 6-fluoro-4-(8-fluoro-4-((1S,7R,8S)-8-fluoro-2-azabicyclo[5.1.0]octan-2-yl)-2-(((R,Z)-6′-(fluoromethylene)tetrahydrospiro [cyclopropane-1,1′-pyrrolizin]-7a′(5′H)-yl)methoxy)pyrido[4,3-d]pyrimidin-7-yl)-5-(fluoromethoxy-d2)naphthalen-2-amine] |
| < 50 | C#Cc1c(F)ccc2cccc(-c3ncc4c(N5CCCC[C@H]6[C@H](F)[C@H]65)nc(OC[C@]56CC(=C)CN5CCC65CC5)nc4c3F)c12 [Example 423, (R)-7a′-(((7-(8-Ethynyl-7-fluoronaphthalen-1-yl)-8-fluoro-4-((1S,7R,8S)-8-fluoro-2-azabicyclo[5.1.0]octan-2-yl)pyrido[4,3-d]pyrimidin-2-yl)oxy)methyl)-6′-methylenehexahydrospiro[cyclopropane-1,1′-pyrrolizine]] |
| < 50 | [2H]C([2H])(Oc1nc(N2CC[C@@H](C#N)C[C@H]3[C@H](F)[C@H]32)c2cnc(-c3cc(N)cc4ccc(F)c(C#C)c34)c(F)c2n1)[C@@]12CCCN1C[C@H](F)C2 [Example 304, (1S,5S,7R,8S)-2-(7-(3-amino-8-ethynyl-7-fluoronaphthalen-1-yl)-8-fluoro-2-(((2R,7aS)-2-fluorotetrahydro-1H-pyrrolizin-7a(5H)-yl)methoxy-d2)pyrido[4,3-d]pyrimidin-4-yl)-8-fluoro-2-azabicyclo[5.1.0]octane-5-carbonitrile] |
| < 50 | [2H]C([2H])(F)Oc1c(F)ccc2cc(N)cc(-c3ncc4c(N5CCCC[C@H]6[C@H](F)[C@H]65)nc(OC[C@]56C/C(=C\F)CN5CCC65CC5)nc4c3F)c12 [Example 383, 6-fluoro-4-(8-fluoro-4-((1S,7R,8S)-8-fluoro-2-azabicyclo[5.1.0]octan-2-yl)-2-(((R,E)-6′-(fluoromethylene)tetrahydrospiro[cyclopropane-1,1′-pyrrolizin]-7a′(5′H)-yl)methoxy)pyrido[4,3-d]pyrimidin-7-yl)-5-(fluoromethoxy-d2)naphthalen-2-amine] |

The next lines start with the molecule.

| SMILES | IC50 [nM] |
| --- | --- |
| [2H]C([2H])(Oc1nc(N2CC[C@H](C#N)C[C@H]3[C@@H](F)[C@H]32)c2cnc(-c3cc(N)cc4ccc(F)c(C#C)c34)c(F)c2n1)[C@@]12CCCN1C[C@H](F)C2 [Example 310, (1S,5R,7R,8R)-2-(7-(3-amino-8-ethynyl-7-fluoronaphthalen-1-yl)-8-fluoro-2-(((2R,7aS)-2-fluorotetrahydro-1H-pyrrolizin-7a(5H)-yl)methoxy-d2)pyrido[4,3-d]pyrimidin-4-yl)-8-fluoro-2-azabicyclo[5.1.0]octane-5-carbonitrile] | 50 to 500 |
| C#Cc1c(F)ccc2cc(O)cc(-c3ncc4c(N5CCOC[C@H]6[C@H](F)[C@H]65)nc(OC[C@@H]5CCCN5C)nc4c3F)c12 [Example 285, 5-ethynyl-6-fluoro-4-(8-fluoro-4-((1S,7S,8S)-8-fluoro-5-oxa-2-azabicyclo[5.1.0]octan-2-yl)-2-(((S)-1-methylpyrrolidin-2-yl)methoxy)pyrido[4,3-d]pyrimidin-7-yl)naphthalen-2-ol] | < 50 |
| [2H]C([2H])(Oc1nc(N2CCOC[C@H]3[C@H](F)[C@H]32)c2cnc(-c3cc(N)cc4ccc(F)c(C#C)c34)c(Cl)c2n1)[C@@]12CCCN1C[C@H](F)C2 [Example 269, 4-(8-Chloro-4-((1S,7S,8S)-8-fluoro-5-oxa-2-azabicyclo[5.1.0]octan-2-yl)-2-(((2R,7aS)-2-fluorotetrahydro-1H-pyrrolizin-7a(5H)-yl)methoxy-d2)pyrido[4,3-d]pyrimidin-7-yl)-5-ethynyl-6-fluoronaphthalen-2-amine] | < 50 |
| [2H]C([2H])(Oc1nc(N2CCOC[C@H]3[C@H](F)[C@H]32)c2cnc(-c3cc(N)cc4c(F)cc(F)c(C#C)c34)c(F)c2n1)[C@@]12CCCN1C[C@H](F)C2 [Example 108, 5-ethynyl-6,8-difluoro-4-(8-fluoro-4-((1S,7S,8S)-8-fluoro-5-oxa-2-azabicyclo[5.1.0]octan-2-yl)-2-(((2R,7aS)-2-fluorotetrahydro-1H-pyrrolizin-7a(5H)-yl)methoxy-d2)pyrido[4,3-d]pyrimidin-7-yl)naphthalen-2-amine] | < 50 |
| [2H]C([2H])(Oc1nc(N2CCOC[C@H]3[C@H](Cl)[C@H]32)c2cnc(-c3cc(N)cc4ccc(C)c(C#C)c34)c(F)c2n1)[C@@]12CCCN1[C@H](C)[C@H](F)C2 [Example 366, 4-(4-((1S,7S,8S)-8-chloro-5-oxa-2-azabicyclo[5.1.0]octan-2-yl)-8-fluoro-2-(((2R,3R,7aS)-2-fluoro-3-methyltetrahydro-1H-pyrrolizin-7a(5H)-yl)methoxy-d2)pyrido[4,3-d]pyrimidin-7-yl)-5-ethynyl-6-methylnaphthalen-2-amine] | < 50 |
| C#Cc1cccc2cc(N)cc(-c3ncc4c(N5CCOC[C@H]6[C@H](F)[C@H]65)nc(OC[C@@H]5CCCN5C)nc4c3F)c12 [Example 297, 5-ethynyl-4-(8-fluoro-4-((1S,7S,8S)-8-fluoro-5-oxa-2-azabicyclo[5.1.0]octan-2-yl)-2-(((S)-1-methylpyrrolidin-2-yl)methoxy)pyrido[4,3-d]pyrimidin-7-yl)naphthalen-2-amine] | < 50 |
| C#Cc1cccc2cc(O)cc(-c3ncc4c(N5CCOC[C@H]6[C@H](F)[C@H]65)nc(OC[C@@H]5CCCN5C)nc4c3F)c12 [Example 295, 5-ethynyl-4-(8-fluoro-4-((1S,7S,8S)-8-fluoro-5-oxa-2-azabicyclo[5.1.0]octan-2-yl)-2-(((S)-1-methylpyrrolidin-2-yl)methoxy)pyrido[4,3-d]pyrimidin-7-yl)naphthalen-2-ol] | < 50 |
| [2H]C([2H])(Oc1nc(N2CCOC[C@H]3[C@H](F)[C@H]32)c2cc(Cl)c(-c3cc(N)cc(C4CC4)c3C(F)(F)F)c(F)c2n1)[C@@]12CCCN1C[C@H](F)C2 [Example 183, 3-(6-chloro-8-fluoro-4-((1S,7S,8S)-8-fluoro-5-oxa-2-azabicyclo[5.1.0]octan-2-yl)-2-(((2R,7aS)-2-fluorotetrahydro-1H-pyrrolizin-7a(5H)-yl)methoxy-d2)quinazolin-7-yl)-5-cyclopropyl-4-(trifluoromethyl)aniline] | 500 to 10000 |
| Nc1cc(Cl)c(C(F)(F)F)c(-c2ncc3c(N4CCCC[C@H]5[C@H](F)[C@H]54)nc(OC[C@@]45CCCN4CC(=C(F)F)C5)nc3c2F)c1 [Example 369, 3-chloro-5-(2-(((S)-2-(difluoromethylene)tetrahydro-1H-pyrrolizin-7a(5H)-yl)methoxy)-8-fluoro-4-((1S,7R,8S)-8-fluoro-2-azabicyclo[5.1.0]octan-2-yl)pyrido[4,3-d]pyrimidin-7-yl)-4-(trifluoromethyl)aniline] | 50 to 500 |
| [2H]C1([2H])CC[C@@]2(C([2H])([2H])Oc3nc(N4CCOC[C@H]5[C@H](F)[C@H]54)c4cnc(-c5cc(N)cc6ccc(F)c(C#C)c56)c(F)c4n3)C[C@@]3(C[C@H]3F)CN12 (single isomer, unassigned) [Example 274] | < 50 |
| C#Cc1c(F)ccc2cccc(-c3ncc4c(N5CCOC[C@H]6[C@H](F)[C@H]65)nc(OC[C@]56C[C@@H](F)CN5C[C@@H](CNC(C)=O)C6)nc4c3F)c12 [Example 245, N-(((2R,6R,7aS)-7a-(((7-(8-ethynyl-7-fluoronaphthalen-1-yl)-8-fluoro-4-((1S,7S,8S)-8-fluoro-5-oxa-2-azabicyclo[5.1.0]octan-2-yl)pyrido[4,3-d]pyrimidin-2-yl)oxy)methyl)-6-fluorohexahydro-1H-pyrrolizin-2-yl)methyl)acetamide] | 50 to 500 |

Same assay, conditions: Homo sapiens, NCI-H441, cellular pERK HTRF, NCI-H441 (KRAS G12V) cells

| IC50 [nM] | SMILES |
| --- | --- |
| < 50 | C#Cc1c(F)ccc2cc(N)cc(-c3ncc4c(N5CCOCC6C(Cl)C65)nc(OC[C@@]56CCCN5CC(=C)C6)nc4c3C)c12 (stereo partly drawn) [Example 443, 4-(4-(8-chloro-5-oxa-2-azabicyclo[5.1.0]octan-2-yl)-8-methyl-2-(((S)-2-methylenetetrahydro-1H-pyrrolizin-7a(5H)-yl)methoxy)pyrido[4,3-d]pyrimidin-7-yl)-5-ethynyl-6-fluoronaphthalen-2-amine] |
| < 50 | C#Cc1c(F)ccc2cc(N)cc(-c3ncc4c(N5CCOC[C@H]6[C@H](F)[C@H]65)nc(OC[C@]56CC(=C(F)F)CN5CCC65CC5)nc4c3C)c12 [Example 437, 4-(2-(((R)-6′-(difluoromethylene)tetrahydrospiro [cyclopropane-1,1′-pyrrolizin]-7a′(5′H)-yl)methoxy)-4-((1S,7S,8S)-8-fluoro-5-oxa-2-azabicyclo[5.1.0]octan-2-yl)-8-methylpyrido[4,3-d]pyrimidin-7-yl)-5-ethynyl-6-fluoronaphthalen-2-amine] |
